ChEMBL document CHEMBL1141818, “Annonaceous acetogenins: recent progress” (J Nat Prod, 1999)
Converted amounts (≈) assume the structure as drawn.

Columns and labels:
A549 = assay: Cytotoxicity against human A549 cells; assay type: functional; details: Homo sapiens, A549; read-out: ED50 (the source's name)
MCF7 = assay: Cytotoxicity against human MCF7 cells; assay type: functional; details: for EC50: Homo sapiens, MCF7, read-out: ED50 (the source's name)
[1] = Toxicity in brine shrimp; assay type: organism-based; details: artemia, in vivo
PC-3 = assay: Cytotoxicity against human PC-3 cells; assay type: functional; details: for EC50: Homo sapiens, PC-3, read-out: ED50 (the source's name)
HT-29 = assay: Cytotoxicity against human HT-29 cells; assay type: functional; details: Homo sapiens, HT-29; read-out: ED50 (the source's name)
MIA PaCa-2 = assay: Cytotoxicity against human MIA PaCa2 cells; assay type: functional; details: for EC50: Homo sapiens, MIA PaCa-2, read-out: ED50 (the source's name)
A498 = assay: Cytotoxicity against human A-498 cells; assay type: functional; details: Homo sapiens, A498; read-out: ED50 (the source's name)

| SMILES | EC50 (A549) [µg/mL] | EC50 (MCF7) [µg/mL] | LC50 [1] [µg/mL] | EC50 (PC-3) [µg/mL] | EC50 (HT-29) [µg/mL] | EC50 (MIA PaCa-2) [µg/mL] | EC50 (A498) [µg/mL] | ED50 (PC-3) [×10⁻⁴ ug/ml] | ED50 (MIA PaCa-2) | ED50 (MCF7) [×10⁻⁴ ug/ml] |
| --- | --- | --- | --- | --- | --- | --- | --- | --- | --- | --- |
| CCCCCCCCCCCC[C@H](O)[C@@H](O)CC[C@H](O)[C@@H]1CC[C@@H](C[C@H](O)CCCCC[C@@H](O)CC2=C[C@H](C)OC2=O)O1 [ANNOPENTOCIN B] | 0.027 (≈ 0.0441 µM) | 3.6 (≈ 5.87 µM) | 0.11 (≈ 0.179 µM) | 0.21 (≈ 0.343 µM) | 1.6 (≈ 2.61 µM) | 0.16 (≈ 0.261 µM) | 0.38 (≈ 0.62 µM) | – | – | – |
| CCCCCCCCCC[C@@H](O)[C@H]1CC[C@H]([C@H]2CC[C@H]([C@H](O)CCCC[C@H](O)CCCCC[C@@H](O)CC3=C[C@H](C)OC3=O)O2)O1 | 0.67 (≈ 1.05 µM) | 0.33 (≈ 0.516 µM) | 0.43 (≈ 0.673 µM) | 0.53 (≈ 0.83 µM) | 0.76 (≈ 1.19 µM) | > 1 | > 1 | – | – | – |
| CCCCCCCCCCCC[C@H](O)[C@@H]1CC[C@H]([C@H](O)CCCCCC(O)CCCCCCC2=C[C@H](C)OC2=O)O1 (some centres not stated) | 2 (≈ 3.44 µM) | 1.7 (≈ 2.93 µM) | 6.8 (≈ 11.7 µM) | 2.1 (≈ 3.62 µM) | 1.4 (≈ 2.41 µM) | 1.1 (≈ 1.89 µM) | 1.8 (≈ 3.1 µM) | – | – | – |
| CCCCCCCCCC[C@@H]1O[C@H]([C@@H]2CC[C@H]([C@H](O)CCCCCCCCCC[C@@H](O)CC3=C[C@H](C)OC3=O)O2)CC[C@H]1O [JIMENEZIN] | 0.016 (≈ 0.0257 µM) | > 0.1 | 0.0057 (≈ 0.00915 µM) | – | 0.0043 (≈ 0.0069 µM) | – | 0.049 (≈ 0.0787 µM) | 2.8 | 1.7 ×10⁻⁴ ug/ml | – |
| CCCCCCCCCCCC[C@@H](O)[C@H]1CC[C@H]([C@H](O)CCCC[C@H](O)CCCCCCC[C@@H](O)CC2=C[C@H](C)OC2=O)O1 [ANNOGLACIN B] | 0.0028 (≈ 0.00448 µM) | – | 0.17 (≈ 0.272 µM) | – | 0.0053 (≈ 0.00848 µM) | – | 0.4 (≈ 0.64 µM) | 8.4 | 1.2 ×10⁻⁶ ug/ml | 6.2 |
| CCCCCCCCCCCC[C@@H](O)[C@@H](O)CC[C@H](O)[C@@H]1CC[C@@H](C[C@@H](O)C[C@@H](O)CCC[C@@H](O)CC2=C[C@H](C)OC2=O)O1 [MURICOREACIN] | 0.0023 (≈ 0.00366 µM) | 1.3 (≈ 2.07 µM) | 19 (≈ 30.2 µM) | 0.025 (≈ 0.0398 µM) | 0.57 (≈ 0.906 µM) | 2.3 (≈ 3.66 µM) | 0.71 (≈ 1.13 µM) | – | – | – |
| CCCCCCCCCCCCCCCC[C@@H](O)[C@H]1CC[C@H]([C@H](O)CC[C@H](O)CCCCC[C@@H](O)CC2=C[C@H](C)OC2=O)O1 [GONIOTETRACIN] | 0.39 (≈ 0.624 µM) | 1.7 (≈ 2.72 µM) | 0.2 (≈ 0.32 µM) | 0.021 (≈ 0.0336 µM) | 1.5 (≈ 2.4 µM) | 0.026 (≈ 0.0416 µM) | 1.5 (≈ 2.4 µM) | – | – | – |
| CCCCCCCCCCCC[C@@H](O)[C@H](O)CC[C@H](O)[C@@H]1CC[C@@H](C[C@H](O)CCCCC[C@@H](O)CC2=C[C@H](C)OC2=O)O1 [ANNOPENTOCIN A] | 0.17 (≈ 0.277 µM) | 18 (≈ 29.4 µM) | 8.9 (≈ 14.5 µM) | 1.1 (≈ 1.79 µM) | 1.6 (≈ 2.61 µM) | 0.036 (≈ 0.0587 µM) | 0.61 (≈ 0.995 µM) | – | – | – |
| CCCCCCCCCCCC/C=C\CC[C@@H](O)[C@H]1CC[C@H]([C@H](O)CC[C@H](O)CCCCC[C@H]2CC(CC(C)=O)C(=O)O2)O1 (mixture of isomers) | 1.8 | 3.7 | < 0.3 | 1.5 | 2.9 | 0.045 | 2.2 | – | – | – |
| CCCCCCCCCCCC[C@@H](O)[C@H]1CC[C@H]([C@H](O)CCCCCC[C@H](O)CCCCC[C@@H]2CC(CC(C)=O)C(=O)O2)O1 (mixture of isomers) | 2.6 | 3.2 | 0.31 | 1 | 0.26 | 0.68 | 1.4 | – | – | – |
| CCCCCCCCCC[C@@H](O)[C@H]1CC[C@H]([C@H]2CC[C@H]([C@H](O)CCCCCC(=O)CCCC[C@@H]3CC(CC(C)=O)C(=O)O3)O2)O1 (mixture of isomers) | 0.0057 | 0.26 | 0.67 | 1.1 | 0.004 | 1.2 | 0.46 | – | – | – |
